In patent US4107424A, “1-N-[(S)-α-hydroxy-ω-aminoacyl] derivatives of 3',4'-dideoxykanamycin B and 3'-deoxykanamycin B antibiotics” (Zaidan Hojin Biseibutsu Kagaku Kenkyu Kai, priority 1972, dated 1978):
≈ marks a conversion by molar mass, not a printed value.

Columns and labels:
[1] = test system: Escherichia coli K-12 ML 1629; test: Minimal inhibitory concentration, agar dilution streak method; assay type: cell-based; conditions: K12ML1629, nutrient agar, 37° C, 18 hours, drug-resistant strain, read-out: minimum inhibitory concentrations
Method: (§1) *Agar Agar dilution streak method (nutrient agar, 37° C, 18 hours)
(§2) *Agar dilution streak method (nutrient agar, 37° C, 18 hours).

[2] = test system: Pseudomonas aeruginosa GN 315; test: as above; assay type: cell-based; conditions: GN315, nutrient agar, 37° C, 18 hours, drug-resistant strain, read-out: minimum inhibitory concentrations
Method: as §1, §2

[3] = test system: Escherichia coli K-12 JR 66/W 677; test: as above; assay type: cell-based; conditions: Escherichia coli, 18 h, read-out: minimum inhibitory concentrations
Method: as §1, §2

[4] = test system: Escherichia coli K-12 LA 290 R 55; test: as above; assay type: cell-based; conditions: 18 h, read-out: minimum inhibitory concentrations
Method: as §1, §2

[5] = test system: mice; test: Acute intravenous toxicity (LD50) in mice; conditions: in words
[6] = in vivo; conditions: mouse, iv
[7] = test system: gram-positive and gram-negative bacteria; test: Antibacterial activity (in words); assay type: cell-based
Method: [α]D^22 + 38°, (c 0.85, water).

[8] = test system: Pseudomonas aeruginosa No.12; test: Minimal inhibitory concentration, agar dilution streak method; assay type: cell-based; conditions: nutrient agar, 37° C, 18 hours, read-out: minimum inhibitory concentrations
Method: as §1, §2

[9] = test system: Pseudomonas aeruginosa A 3; test: as above; assay type: cell-based; conditions: A3, nutrient agar, 37° C, 18 hours, read-out: minimum inhibitory concentrations
Method: as §1, §2

[10] = test system: Staphylococcus aureus FDA 209P; test: as above; assay type: cell-based; conditions: FDA209P, nutrient agar, 37° C, 18 hours, read-out: minimum inhibitory concentrations
Method: as §1, §2

[11] = test system: Escherichia coli K-12 W 677; test: as above; assay type: cell-based; conditions: K12W677, nutrient agar, 37° C, 18 hours, read-out: minimum inhibitory concentrations
Method: as §1, §2

[12] = test system: Escherichia coli K-12 ML 1410; test: as above; assay type: cell-based; conditions: K12ML1410, nutrient agar, 37° C, 18 hours, read-out: minimum inhibitory concentrations
Method: as §1, §2

Structure (SMILES)	MIC [1] [µg/mL]	MIC [2] [µg/mL]	MIC [3] [µg/mL]	MIC [4] [µg/mL]	toxicity [5]	LD50 [6] [mg/kg]	antibacterial activity compared with parent or reference substance ([7]; sensitive (and resistant) bacteria)	antibacterial activity ([7]; various gram-positive and gram-negative bacteria, including resistant strains)	MIC [8] [µg/mL]	MIC [9] [µg/mL]	MIC [10] [µg/mL]	MIC [11] [µg/mL]	MIC [12] [µg/mL]
CNC[C@H]1O[C@H](O[C@H]2[C@H](O)[C@@H](O[C@H]3O[C@H](CO)[C@@H](O)[C@H](N)[C@H]3O)[C@H](N)C[C@@H]2N)[C@H](N)C[C@@H]1O [3'-deoxy-6'-N-methylkanamycin B]	1.56 (≈ 3.24 µM)	6.25 (≈ 13 µM)	50 (≈ 104 µM)	50 (≈ 104 µM)	–	–	–	–	–	–	–	–	–
NC[C@H]1O[C@H](O[C@H]2[C@H](O)[C@@H](O[C@H]3O[C@H](CO)[C@@H](O)[C@H](N)[C@H]3O)[C@H](N)C[C@@H]2N)[C@H](N)C[C@@H]1O [3'-deoxykanamycin B]	0.78 (≈ 1.67 µM)	100 (≈ 214 µM)	50 (≈ 107 µM)	50 (≈ 107 µM)	–	–	–	–	–	–	–	–	–
NC[C@H]1O[C@H](O[C@H]2[C@H](O[C@@H]3O[C@H](CO)[C@@H](O)[C@H]3O)[C@@H](O)[C@H](N)C[C@@H]2N)[C@H](N)C[C@@H]1O [3'-deoxyribostamycin]	> 100	> 100	> 100	> 100	–	–	–	–	–	–	–	–	–
NCC[C@H](O)C(=O)N[C@@H]1C[C@H](N)[C@@H](O[C@H]2O[C@H](CN)[C@@H](O)C[C@H]2N)[C@H](O)[C@H]1O[C@H]1O[C@H](CO)[C@@H](O)[C@H](N)[C@H]1O [AHB-deoxykanamycin B, 1-N-[(S)-4-amino-2-hydroxybutyryl]-3'-deoxykanamycin B]	0.78 (≈ 1.37 µM)	50 (≈ 87.9 µM)	3.12 (≈ 5.49 µM)	0.78 (≈ 1.37 µM)	toxicity as low as that of their parent substances	> 100	antibacterial activity as high as that of their parent substances	high antibacterial activity against the kanamycin-resistant strains	0.78 (≈ 1.37 µM)	0.78 (≈ 1.37 µM)	0.78 (≈ 1.37 µM)	1.56 (≈ 2.74 µM)	0.78 (≈ 1.37 µM)
